From patent publication US7687546B2, “Quaternary ammonium compound, process for producing the same, therapeutic agent for cerebrovascular disorder, and therapeutic agent for heart disease” (Activus Pharma Co., Ltd., priority 2004, dated 2010)
Read-outs that look alike come from different tables or passages of the source.

Tests used:
[1] = tested on: middle cerebral artery occlusion and reperfusion model; test: Cerebral infarction model: middle cerebral artery occlusion and reperfusion (infarct area, neurological symptoms, motor function); format: in vivo, rats (Crj: Wistar strain); parameters: Improvement of neurological symptoms* (total score): scale not given here; conditions: rats, average of 10 animals; for Improvement of neurological symptoms* (total score) / Improvement of motor function (time stayed on rotor rod: seconds): single i.v. dose 3 mg/kg; for Improvement of neurological symptoms* (total score): 24 hours after occlusion, total score per Table 4, smaller = greater effect; for Improvement of motor function (time stayed on rotor rod: seconds): rotor rod 14 rotations per minute, maximum 1 minute; for Cerebral infarction reduction rate (%): single intravenous dose 3 mg/kg immediately before reperfusion, vs physiological saline group, bigger = greater effect
Method: In this example, a cerebral infarction model was prepared using rats in which reperfusion injury was induced by ischemia and then reperfusion of the middle cerebral artery using the obturator method. The efficacy of compounds of the present invention following single-dose intravenous administration at dose of 3 mg/kg was evaluated in terms of infarct area, neurological symptoms and motor function.
In addition, Edaravone (trade name, Mitsubishi Pharma Corporation) was used as a reference compound. The compounds of the present invention were stored in a refrigerator under protection from light, while Edaravone (trade name) was stored at room temperature under protection from light.
Compounds of present invention: 2 mL of physiological saline was added directly to tube containing 3 mg aliquots of a compound of the present invention to dissolve and prepare solutions having a concentration of 3 mg/2 mL. These samples were prepared at the time of use.
Edaravone: Since Edaravone is an injectable solution having a concentration of 30 mg/20 mL, the required amounts were divided up and used.
Rats: Crj: Wistar strain, males, age 7 weeks (Charles River Laboratories Japan, Inc.)
The test compounds were administered in a single dose into the tail vein using a 1 mL syringe and 27 G injection needle immediately before the reperfusion.
The rats were anesthetized by intraperitoneal administration of sodium pentobarbital at dose of 40 mg/kg (Nembutal (trade name), Dainippon Pharmaceutical Co., Ltd.), and a middle cerebral artery occlusion and reperfusion model was prepared in accordance with the method of Koizumi et al. (Non-Patent Document 2). Namely, the animals were warmed to 37° C. and held in the dorsal position while breathing spontaneously. A midline cervical incision was made, and then the right external carotid artery and right internal carotid artery were separated without damaging the vagus nerve. The right common carotid artery and right external carotid artery were ligated, and a suture was attached to the origin of the internal carotid artery in preparation for ligation and maintenance of occlusion following insertion of an obturator into the internal carotid artery. Moreover, a small incision was made in the right common carotid artery, an obturator provided with an approximately 17 mm silicon-coated suture was inserted into the internal carotid artery, and the internal carotid artery was ligated. Two hours after ligation, the obturator was removed under unanesthesia to reperfuse. Furthermore, flexion of the contralateral forelimb was confirmed 30 minutes after occlusion of the middle cerebral artery.
The following neurological symptoms were evaluated 24 hours after occlusion of the middle cerebral artery according to the evaluation method of Petullo et al. (Non-Patent Document 3). Neurological symptoms consisted of flexion of the forelimbs, torso twisting, resistance when pushing on the back of the right or left shoulder (Lateral push), circling, return of the hindlimb to the floor when lifted from the floor (Hindlimb placement), behavior when the head is faced downward on an angle (Inverted angle board) and a locomotor activity test.
Flexion of the forelimbs: flexion of the forelimbs was observed when the animals were lifted up by the tail.
Torso twisting: Torso twisting was observed when the animals were lifted up by the tail.
Lateral push: Resistance was observed when pushing on the back of the right or left shoulder.
Hindlimb placement: The animals were observed as to whether or not the hindlimb immediately returns to the floor after being lifted from the floor when placed on a horizontal floor.
locomotor activity: locomotor activity was observed when the animals were placed in a polycarbonate cage.
The aforementioned tests were scored based on the criteria described in the following documents, followed by calculation of total scores (see Table 4 “Neurological Symptom Evaluation Criteria and Scores”). […]

[2] = tested on: ouabain-induced arrhythmia model; test: Ouabain-induced arrhythmia model in guinea pigs; format: in vivo, guinea pigs (Hartley strain); conditions: dose 3 mg/kg i.v. immediately before ouabain infusion 3 μg/0.1 ml/min
Description: After guinea pigs (Hartley strain, age 6 weeks) were anesthetized with urethane, induction electrodes were attached to the hind limbs and fore limbs, and standard 2-lead electrocardiograms were monitored with an animal electrocardiogram analysis system (ECG-01, Japan Energy). After confirming that the waveforms of the electrocardiogram and heart rate were within the normal range, an incision was made in the epidermis of the neck followed by inserting a breathing tube into the trachea and cannulating a polyethylene tube into the left external jugular vein and left common carotid artery.
Immediately after administering a compound of the present invention dissolved in a physiological saline solution into the right external jugular vein, ouabain was continuously infused at 3 μg/0.1 ml/min through the cannulated polyethylene tube into the left external jugular vein using a syringe pump (Atom Syringe Pump 1235 (trade name), Atom Medical Corporation).
In addition, the polyethylene tube cannulated in the left common carotid artery was connected to a pressure transducer (P23XL, Gould Electronics), and fed to a pressure processor signal conditioner (TA-11, Gould Electronics) to record blood pressure and heart rate on a thermal plate recorder.
The results were assessed by comparing the dose (μg/kg) of ouabain administered until the appearance of arrhythmia and occurrence of cardiac arrest (arrhythmia is not induced even if a large dose of ouabain is administered if antiarrhythmic effects are high). Furthermore, a solvent dose group (administered only physiological saline in an amount equal to that of the test drug groups), and a positive control group administered a typical antiarrhythmic disopyramide phosphate (physiological saline solution), were also provided.

[3] = tested on: model of myocardial ischemia reperfusion injury; test: Model of myocardial ischemia-reperfusion injury in dogs; format: in vivo; conditions: 3 mg/kg into the femoral vein 10 minutes before 20 minutes coronary occlusion, then reperfusion
Method: In order to confirm the efficacy of compounds of the present invention on myocardial infarction and arrhythmia caused by myocardial infarction, a pharmacological study was conducted using a model of myocardial ischemia reperfusion injury in dogs for the compounds used in Example 1.
Dogs having body weights of approximately 10 kg were anesthetized with pentobarbital (trade name) (30 mg/ml/kg) followed by shaving the surgical site after starting artificial respiration. The femoral vein and femoral artery were separated followed by cannulation. The femoral vein was used as the administration route for the test substances, while the femoral artery was used to measure blood pressure.
Next, after opening the left chest, making an incision in the pericardium and exposing the left ventricle, the left coronary artery was separated. A silk suture was passed through the coronary artery to occlude, followed by the attachment of an electromagnetic flow meter probe for measuring blood flow.
In addition, a pair of ultrasound crystal probes was fixed in position to measure changes in ventricular wall length as a indicator of myocardial contractile force, and indwelling needle was installed for measuring left intraventricular pressure. Compounds of the present invention were administered into the femoral vein at 3 mg/kg (15% physiological saline solution) followed 10 minutes later by occluding the coronary artery for 20 minutes, and subsequently reperfusing the coronary artery. Myocardial contraction following ischemia-reperfusion was compared for each group based on a value of 100 for myocardial contraction prior to ischemic reperfusion. In addition, comparisons were also made with a solvent control group administered only physiological saline.

[4] = tested on: model of myocardial ischemia-reperfusion injury; test: Model of myocardial ischemia-reperfusion injury in rats; format: in vivo; conditions: 3 mg/kg i.v. 5 minutes before 5 minutes coronary ligation, 8 rats per group; for Incidence of Ventricular Fibrillation (%) / Incidence of Ventricular Tachycardia (%): monitored 5 minutes after reperfusion; for Mortality Rate (%): then reperfusion
guinea pigs = conditions: guinea pig, in vivo

Compound | Improvement of neurological symptoms* (total score) [1] | Improvement of motor function (time stayed on rotor rod: seconds) [1] [s] | Cerebral infarction reduction rate (%) [1] [%] | Ouabain (μg/kg) administered until Cardiac arrest [2] [µg/kg] | Ouabain (μg/kg) administered until appearance of Arrhythmia [2] [µg/kg] | Myocardial Contraction (%) (Based on a value of 100% for prior to ischemia-reperfusion) [3] | Incidence of Ventricular Fibrillation (%) [4] [%] | Incidence of Ventricular Tachycardia (%) [4] [%] | Mortality Rate (%) [4] [%] | Occurrence of Arrhythmia (guinea pigs; 3 mg/kg) | Occurrence of cardiac arrest (guinea pigs; 3 mg/kg) | Occurrence of Arrhythmia (guinea pigs; 10 mg/kg) | Occurrence of cardiac arrest (guinea pigs; 10 mg/kg)
C[N+](C)(C)CCOc1ccc(O)c(C(=O)[O-])c1 [Compound 9] | 5.95 | 51.6 | 51.5 | 245 | 170 | 78 | 25.0 | 75.0 | 12.5 | No | No | No | No
C[N+](C)(C)CCOc1cc(O)cc(C(=O)[O-])c1O [Compound 28] | 5.85 | 53.1 | 54.7 | 267 | 173 | 76 | 12.5 | 62.5 | 12.5 | No | No | No | No
C[N+](C)(C)CCOc1cc(C(=O)[O-])c(O)cc1O [Compound 30] | 6.50 | 51.4 | 42.9 | 247 | 173 | 77 | 12.5 | 62.5 | 12.5 | No | No | No | No
C[N+](C)(C)CCOc1cc(C(=O)[O-])cc(O)c1O [Compound 31] | 5.25 | 60.0 | 65.3 | 259 | 179 | 89 | 0 | 37.5 | 0 | No | No | No | No
C[N+](C)(C)CCOc1ccc(C(=O)[O-])c(O)c1O [Compound 32] | 5.65 | 53.5 | 55.4 | 243 | 176 | 79 | 12.5 | 50.0 | 12.5 | No | No | No | No
C[N+](C)(C)CCOc1ccc(O)c(O)c1C(=O)[O-] [Compound 33] | 5.90 | 52.1 | 52.6 | 239 | 171 | 82 | 12.5 | 50.0 | 0 | No | No | No | No
CC1=NN(c2ccccc2)C(=O)C1 [Edaravone, reference compound] | 6.10 | 42.6 | 37.3 | – | – | – | – | – | – | – | – | – | –
CCN(CC)CC(=O)Nc1c(C)cccc1C [Lidocaine, lidocaine, reference compound] | – | – | – | – | – | – | 12.5 | 62.5 | 12.5 | – | – | – | –
